Usually IC50 stands for the point on the concentration scale where inhibition reaches its midpoint. As a reminder, the IC90 is the concentration needed for an effect of 90%.

From PubChem BioAssay AID449762 (Southern Research Specialized Biocontainment Screening …, 2010) come the findings set out here.

In the test the test system is M. tuberculosis H37Rv growth inhibition, 7H9 media. The test can be described thus: M. tuberculosis growth inhibition, HTS (AID 449762).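 For all read-outs here: bacterial growth assessed after seven days of incubation.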 The note with it: for IC90: measured here: IC90 growth inhibition.

Inconclusive results are not listed.

As for `O=C(CCc1ccc(Oc2cc([N+](=O)[O-])cc([N+](=O)[O-])c2)cc1)N1CCCCCC1`, the IC50 was 4.2 µM and the IC90 came out at 27 µM.

Consider `CCN1C(=NCCc2ccc(Br)cc2)N[C@@H](c2ccccc2)[C@H](C(=O)OC)[C@H]1C`, for which the IC50 is 16.7 µM and the 90% effect concentration (IC90) was determined as 22.1 µM. On to `CCCCOc1ccc(Br)cc1/C(C)=N/NC1=NCCN1`, for which the IC50 was 20.7 µM and the IC90 came to 33.3 µM. With `CCc1ccc(-c2nn(-c3ccccc3)cc2CSC(=N)N)cc1`, the IC50 is 17.5 µM and the concentration for an effect of 90% (IC90) turned out to be 22.4 µM. For `CCC[C@@H]1C[C@@H](C(=O)NC(C(C)Cl)[C@H]2O[C@H](SC)[C@H](O)[C@@H](O)[C@H]2O)N(C)C1` (stereo partly drawn), in that order: 1.53 µM and 5.1 µM. In the case of `C/C(CCc1ccc2c(c1)OCO2)=N\NC(=S)NC(C)C`, the IC50 was 35.7 µM and the IC90 came out at 48.4 µM. As for `O=C(N/N=C/c1cccc2cccnc12)[C@H]1C[C@@H]1c1ccccc1`, the IC50 is 18.6 µM and the IC90 turned out to be 34.7 µM. Consider `COC(=O)c1cc(-c2cccc(OC)c2)on1`, for which the IC50 is 0.37 µM and the IC90 was > 100 µM. Take `CCOC(=O)c1sc2ncnc(NCC(c3cccs3)N(C)C)c2c1C` (stereo not drawn): the IC50 was 34.9 µM and the IC90 is 71.6 µM. As for `Cc1oc2c(c1C(=O)NCc1cccnc1)C(=O)c1ccccc1C2=O`, the IC50 was 9.78 µM and the IC90 was found to be 13.9 µM. For `Fc1cccc(CCN2CCNC[C@H]2Cc2cccc3ccccc23)c1`, in that order: 36.6 µM and 43.2 µM. In the case of `O=C(/C=C/c1cccnc1)c1cccc(O)c1`, the IC50 was 6.48 µM and the IC90 was 14.8 µM.

`CCCCOc1ccc(-c2nnn(C(C)C(=O)OCC)n2)cc1` (stereo not drawn): the IC50 is 0.75 µM and the 90% effect concentration (IC90) came out at 5.42 µM. Take `O=C(CN1CCCCC1)Nc1nnc(-c2ccc([N+](=O)[O-])cc2)s1`: the concentration for half-maximal inhibition (IC50) is 16.2 µM and the IC90 came out at 62.4 µM. For `Cc1c(Cl)ccc2c1NC(=O)[C@]21N[C@@H](Cc2ccccc2)[C@H]2C(=O)N(c3ccc(F)cc3)C(=O)[C@H]21`, in that order: 23 µM and 26.1 µM. As to `CC[C@H](C)[C@@H]1O[C@@]2(C=CC1C)CC1C[C@@H](CC=C(C)C(O[C@H]3CC(OC)C(O[C@H]4CC(OC)C(O)C(C)O4)C(C)O3)C(C)C=CC=C3CO[C@@H]4C(O)C(C)=C[C@@H](C(=O)O1)[C@]34O)O2` (stereo partly drawn), the IC50 was 12.7 µM and the IC90 came to 18.1 µM. Turning to `Cc1cccc2c1-c1sc(C(=O)Nc3ccccc3N3CCN(C)CC3)cc1CO2`, the IC50 is 17.9 µM and the IC90 is 25.1 µM. For `CC(C)CCNC(=O)C(c1ccc(O)cc1)N(C(=O)C1COc2ccccc2O1)c1cccc(O)c1` (stereo not drawn) the same measures were 71 µM and > 100 µM. Regarding `Cc1ccc(CN2CC(C(=O)OCc3ccccc3Cl)CC2=O)cc1` (stereo not drawn), the IC50 is 4.66 µM and the IC90 came to 28.7 µM. For `CCCOc1ccc2c(c1)C(=NN=C(N)N)c1cc(OCCC)ccc1-2`, the IC50 was 12.4 µM and the IC90 amounted to 13.1 µM.

Consider `COc1ccccc1OCCN1CSC(=S)N(C)C1`, for which the IC50 is 6.34 µM and the IC90 amounted to 15.3 µM. As for `COc1ccc(-c2nc(CN3CCN(c4cc(C)nc(C)c4)CC3)c(C)o2)c2ccccc12`, the IC50 is 19.6 µM and the IC90 amounted to 25.2 µM.

Regarding `O=C(N[C@H]1CCC(=O)N(CCSc2ccc(Br)cc2)CC1)OCc1ccccc1`, the IC50 was 23.3 µM and the concentration for an effect of 90% (IC90) was 28.6 µM.

As for `CCCn1c(N2CCN(Cc3ccc(Cl)cc3)CC2)nc2ccccc21`, the IC50 is 11.3 µM and the IC90 was determined as 23.5 µM. For `O=C(C[n+]1cc(-c2ccc(Cl)cc2)n2c1CCC2)Nc1nc(-c2ccccc2)cs1` the same measures were 17 µM and 25.1 µM. On to `CC1(c2ccc(Cl)c(Cl)c2)NC(=S)N2C1NC(=S)N2c1ccccc1` (stereo not drawn), for which the concentration for an effect of 90% (IC90) is > 100 µM. As to `Clc1ccc2c(c1)C(c1ccccc1Cl)=NCc1nnc(N3CCN(CCOc4ccccc4)CC3)n1-2`, the IC50 was 43 µM and the IC90 was found to be 48 µM. Consider `COc1ccc2c(c1)CC/C(=C\C=C\c1ccccc1OC)C2=O`, for which the half-inhibitory concentration (IC50) is 7.79 µM and the IC90 worked out at 17.8 µM. Regarding `O=C(O)c1ccccc1C(=O)NNc1ccc(Cl)cc1Cl`, the concentration for an effect of 90% (IC90) is > 100 µM. As to `CCc1ccc(NC(=O)c2ccc(C3SCC(=O)N3CCc3ccccc3)cc2)cc1` (stereo not drawn), the IC50 was 97.5 µM and the IC90 was > 100 µM. For the compound `CN(C)c1nc(NCc2ccccc2)nc(N/N=C/c2ccc3c(c2)OCO3)n1`, the IC50 is 42.7 µM and the IC90 was > 100 µM.

Turning to `Cc1cc(Cl)ccc1NNC(=O)CCc1ccccc1`, the IC50 was 94.5 µM and the IC90 was > 100 µM. Regarding `CCN(CC)c1ccc(/C=C2\SC(=O)N(C(C)C)C2=O)o1`, the IC50 was 1.34 µM and the IC90 stood at 4.79 µM. Consider `CC(C)(C)C(=O)N1CCN(c2ccc(NC(=O)c3ccc([N+](=O)[O-])o3)cc2)CC1`, for which the IC50 is < 0.2 µM and the concentration for an effect of 90% (IC90) is < 0.2 µM.

Take `COC(=O)CSc1nnc([C@H](CC(C)C)NC(=O)OC(C)(C)C)o1`: the IC50 is 14.5 µM and the IC90 was 32.9 µM. Regarding `O=C1N/C(=N\N=C\c2ccccn2)SC1Cc1cccc(SC(F)F)c1` (stereo not drawn), the IC50 is 73.1 µM and the IC90 was > 100 µM. Turning to `O=C(NCc1ccc2c(c1)OCO2)c1c(O)nc2sccn2c1=O`, the 50% inhibitory concentration (IC50) is 40 µM and the IC90 is > 100 µM. As for `C[n+]1c(-c2ccccc2)cc(CCCCc2cc(-c3ccccc3)[n+](C)c(-c3ccccc3)c2)cc1-c1ccccc1`, the IC50 was 17.3 µM and the IC90 is 21.7 µM. As to `CC(/C=N/NC(=O)c1cc(-c2ccc3ccccc3c2)n[nH]1)=C\c1ccco1`, the IC50 was 29 µM and the IC90 worked out at 51.2 µM. Regarding `Cn1c(CNc2ccccc2O)nc2ccccc21`, the IC50 was 3.01 µM and the 90% effect concentration (IC90) amounted to 3.52 µM. For the compound `CC(C)(C)c1ccc(-c2nc3[nH]c(=O)cc(NC(=O)c4ccco4)n3n2)cc1`, the 50% inhibitory concentration (IC50) was 74.4 µM and the IC90 was > 100 µM. As for `CC(C)(C)c1ccc(C(O)CCCN2CCC(C(O)(c3ccccc3)c3ccccc3)CC2)cc1` (stereo not drawn), the IC50 was 12.2 µM and the IC90 stood at 17.4 µM. Consider `CN(CCO)c1cc(Sc2nc3ccccc3s2)c2nonc2c1[N+](=O)[O-]`, for which the IC50 was 27 µM and the IC90 was > 100 µM.

On to `COC(=O)c1c(NC(=O)CCl)sc(C(=O)N2CCOCC2)c1C`, for which the IC50 was 2.19 µM and the IC90 came to 5.65 µM. For the compound `c1ccc2sc(Sc3ncnc4sccc34)nc2c1`, the IC50 was 3.36 µM and the IC90 was found to be 6.95 µM. As to `CC(=O)C1=C(C)NC(SCC(=O)c2ccc(F)cc2)=C(C#N)C1c1ccco1` (stereo not drawn), the IC50 is 46.1 µM and the IC90 worked out at 51 µM. Regarding `Cc1nc2scc(-c3cccs3)c2c(=O)n1-n1cccc1`, the IC50 was 56.1 µM and the concentration for an effect of 90% (IC90) is > 100 µM.

Regarding `CC1CC2=C(CC1/C=N/NC(N)=S)C(C)(C)CCC2` (stereo not drawn), the 50% inhibitory concentration (IC50) was 14.4 µM and the IC90 came to 24.6 µM. For `Cc1oc(-c2cccc(Cl)c2)nc1CN1CCC(C(=O)N2CCN(c3ccccc3F)CC2)CC1`, the IC50 was 20.8 µM and the IC90 was determined as 26.3 µM.

On to `Cc1ccc(C(C)C)c(OCC(=O)OCc2c(C)noc2C)c1`, for which the IC50 is 2.86 µM and the IC90 stood at 3.29 µM.
